Source: patent publication US9693971B2, “Compositions for alleviating gastrointestinal tract disorders or associated systemic disorders in ruminants and camelids” (FREIE UNIVERSITÄT BERLIN, priority 2012, dated 2017)
Entries after “also recorded” stand apart in the source; their conditions may differ. Read-outs that look alike come from different tables or passages of the source.

Tests used:
[1] = corresponding to 30 g/60 l; cited from earlier work
[2] = tested on: bacteria flora in the ruminal fluid; settings: in vitro, thymol 3-12 g/60 l; cited from earlier work
rumen epithelium [3] = test: Ca^45 calcium flux across rumen epithelium in conventional Ussing chambers, thymol vs basal value; assay type: cell-based, one cow, one sheep; settings: after adding thymol; N=2, n=44 epithelia; FIG. 10B
Text: (§1) Supplementary, the transport rate of a substance across the epithelium is quantitatively determined by examining the buffer solution prior to and after a defined test period (in conjunction with the methods of an aspect of the present invention for determining the ammonia flux by means of an ammonia electrode (Thermo Scientific Orion 9512HPBNWP, Thermo Fisher Scientific Inc., Waltham, Mass. 02454) while at the same time registering shifts in the solution pH, or measuring the calcium flux with radioactive isotopes).
(§2) For a direct verification of a modulation of the calcium transport across the rumen epithelium, a radioactive calcium isotope (Ca^45) was employed in further experiments. The measurements were carried out in conventional Ussing chambers without continuous perfusion. Herein, tissue of N=4 (cattle) was collected and n=85 epithelia were used therein.
(§3) The isotope was employed on the mucosal side (corresponding to the side on which the food is) and the emergence on the blood side was measured.
Approach: First, a basal value of the Ca flux across the rumen epithelium was detected. Then a substance was added. The subsequently measured Ca flux was compared to the starting value (100%). […]

[4] = tested on: rumen epithelium from cattle; test: Ussing chamber: ammonium-induced transepithelial short-circuit current (Isc) across isolated rumen epithelium; assay type: cell-based; settings: for influence on ammonium-induced conductivity / transport across rumen epithelium (profile in words): no concentration stated
Text: The experiments on the intact epithelium take place as already specified (Abdoun, Stumpff et al. 2005; Abdoun, Stumpff et al. 2010). The measuring techniques used are a combination of the Ussing chamber technique developed by Ussing (1949) and the microelectrode technique.
When examining epithelial transport processes with the Ussing chamber, the epithelium is installed in a special chamber, which makes it possible to rinse the two sides of the epithelium (apical: food side; basolateral: blood side) separately of each other with buffer solutions of various composition, wherein the electrophysiological parameters (current and voltage) across the epithelium are traced. Hereby, it is made possible to differentiate between the transport of an uncharged substance (e.g. ammonia, NH3) and the transport of a charged substance (e.g. ammonium, NH4^+), as the former takes place without a change in current and voltage, whereas the latter is coupled with the transfer of a charge and thus changes the transepithelial electrical parameters.
With the help of a special modification, the reaction of individual epithelia to solution changes, taking place very rapidly and smoothly, is also examined over time. Hereby, for example, the reproducibility of a pharmacological intervention on the same piece of epithelium can very well be examined. This modification of the classic Ussing chamber technique is particularly, albeit not exclusively, used for the comparative “screening” of the various substances which are subject of an aspect of the present invention.
The epithelium is horizontally clamped into a modified Ussing chamber, wherein the mucosal side faces upwards. The chamber made of plexi-glass has a cross-section surface of 0.79 cm^2, which is corrected to 1 cm^2. As a protection against damages on the edges of the epithelium, “edge damage”, a silicone ring is in each case placed between chamber and epithelium. The two resulting chambers (mucosal and serosal) are each supplied by their own perfusion system (4-channel-stand-pump, Ismatec SA). With three-way valves, an independent solution change between altogether eight solutions is possible in the two chambers. During storage, the solutions are gassed in their containers with 100% O2. To warm the solutions up to 37° C., the thin perfusion tubes run through a heat exchanger pump. The suction device (Masterflex R/S, Cole Parmer Instrument Company) present in both chambers guarantees a rapid and safe change of solution. In order to ensure that there are no solution change artefacts when adding agonists and antagonists, the substances are pipetted into the respective solution, wherein the gassing ensures a rapid mixing. In this way, pressure fluctuations or an interruption of the flow through the chamber can be safely precluded.
As in the conventional Ussing chamber technique, there are in each case two electrodes near the tissue and two electrodes distant from the tissue for measuring the transepithelial potential difference and the transepithelial current (Isc). The connections between the Ag/AgCl electrodes, which are filled with 3 M KCl, are established via agar bridges. Just as in Strecker (Strecker 2011), the measuring chamber is connected to a “voltage clamp” installation (Ussing chamber unit) in assembly with a microelectrode amplifier (both Biomedical Instruments Co., Germering). A micromanipulator (MF 500) installed above the measuring chamber offers the possibility to move the microelectrode in fine μm steps. Additionally, a microscope as well as a cold-light source are located above the apparatus.
Menthol (Sigma-Aldrich) was dissolved at a concentration of 1 mol·l^−1 in ethanol and pipetted into the used test solution containing ammonium. For an end concentration of 1 mmol·l^−1, 20 μl of this stock solution was added to 20 ml test solution; for 200 μmol·l^−1 correspondingly less. In control experiments, corresponding amounts of pure ethanol were added to the test solution.

bacteria flora = settings: 1.5 mM thymol (corresponding to 14 g/60 l ruminal fluid); cited from earlier work
TRPV3 = molecular target: T1, TRPV3 (Homo sapiens, UniProt Q8NET8); settings: cited from earlier work
T1 sequence (Q8NET8 1-790): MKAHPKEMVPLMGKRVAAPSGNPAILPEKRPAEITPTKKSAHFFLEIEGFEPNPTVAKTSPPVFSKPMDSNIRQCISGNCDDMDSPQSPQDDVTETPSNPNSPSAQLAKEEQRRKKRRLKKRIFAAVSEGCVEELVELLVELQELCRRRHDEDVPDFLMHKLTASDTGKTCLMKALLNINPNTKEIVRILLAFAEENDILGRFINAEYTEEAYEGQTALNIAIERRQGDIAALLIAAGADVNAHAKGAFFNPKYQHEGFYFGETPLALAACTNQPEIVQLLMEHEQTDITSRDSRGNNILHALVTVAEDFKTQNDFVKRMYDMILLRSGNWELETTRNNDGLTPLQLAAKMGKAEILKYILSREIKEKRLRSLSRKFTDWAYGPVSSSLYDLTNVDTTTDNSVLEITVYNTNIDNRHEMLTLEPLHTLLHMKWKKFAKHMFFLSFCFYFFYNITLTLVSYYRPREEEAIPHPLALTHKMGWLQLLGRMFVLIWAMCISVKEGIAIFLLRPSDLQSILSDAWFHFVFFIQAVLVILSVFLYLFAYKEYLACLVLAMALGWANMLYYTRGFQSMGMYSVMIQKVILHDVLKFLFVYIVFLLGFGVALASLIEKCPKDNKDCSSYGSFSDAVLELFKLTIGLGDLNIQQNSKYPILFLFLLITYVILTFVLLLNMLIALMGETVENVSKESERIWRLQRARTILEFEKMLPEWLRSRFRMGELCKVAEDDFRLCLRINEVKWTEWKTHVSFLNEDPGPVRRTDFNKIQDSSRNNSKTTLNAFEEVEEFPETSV

TRPA1 = TRPA1 (Homo sapiens, UniProt O75762); settings: cited from earlier work
Chain of TRPA1 (O75762 whole entry, species assumed): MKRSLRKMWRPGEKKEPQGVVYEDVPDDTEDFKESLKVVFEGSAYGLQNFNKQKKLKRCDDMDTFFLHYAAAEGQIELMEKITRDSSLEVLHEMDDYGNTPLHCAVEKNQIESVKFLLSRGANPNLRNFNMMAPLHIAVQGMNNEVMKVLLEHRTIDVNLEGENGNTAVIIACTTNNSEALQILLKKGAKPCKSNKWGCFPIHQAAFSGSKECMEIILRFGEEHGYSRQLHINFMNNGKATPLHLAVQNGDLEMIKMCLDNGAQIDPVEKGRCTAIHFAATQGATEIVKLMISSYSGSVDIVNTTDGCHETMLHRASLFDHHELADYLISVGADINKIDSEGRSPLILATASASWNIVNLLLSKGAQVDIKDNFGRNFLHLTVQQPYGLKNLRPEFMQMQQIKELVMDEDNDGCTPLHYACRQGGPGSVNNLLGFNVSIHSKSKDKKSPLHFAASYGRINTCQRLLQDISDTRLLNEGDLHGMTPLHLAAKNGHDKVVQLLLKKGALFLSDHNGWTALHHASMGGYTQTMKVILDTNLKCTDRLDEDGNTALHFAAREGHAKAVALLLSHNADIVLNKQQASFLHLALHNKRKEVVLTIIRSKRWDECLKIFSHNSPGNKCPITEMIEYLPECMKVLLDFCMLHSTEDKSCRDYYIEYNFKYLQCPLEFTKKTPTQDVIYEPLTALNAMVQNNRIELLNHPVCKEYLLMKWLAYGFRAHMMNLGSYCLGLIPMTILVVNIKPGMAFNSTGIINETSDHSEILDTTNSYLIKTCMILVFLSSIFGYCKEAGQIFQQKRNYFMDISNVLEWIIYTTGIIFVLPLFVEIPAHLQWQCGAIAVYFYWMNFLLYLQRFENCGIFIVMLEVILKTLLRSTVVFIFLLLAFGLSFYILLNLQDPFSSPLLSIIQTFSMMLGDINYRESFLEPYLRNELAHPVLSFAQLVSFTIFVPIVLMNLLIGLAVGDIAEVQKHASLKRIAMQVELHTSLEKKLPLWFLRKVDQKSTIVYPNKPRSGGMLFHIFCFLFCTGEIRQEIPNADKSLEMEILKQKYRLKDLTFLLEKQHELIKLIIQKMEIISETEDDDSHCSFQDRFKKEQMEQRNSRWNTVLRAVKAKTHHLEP

TRPV1 = TRPV1 (Homo sapiens, UniProt Q8NER1); settings: cited from earlier work
Chain of TRPV1 (Q8NER1 whole entry, species assumed): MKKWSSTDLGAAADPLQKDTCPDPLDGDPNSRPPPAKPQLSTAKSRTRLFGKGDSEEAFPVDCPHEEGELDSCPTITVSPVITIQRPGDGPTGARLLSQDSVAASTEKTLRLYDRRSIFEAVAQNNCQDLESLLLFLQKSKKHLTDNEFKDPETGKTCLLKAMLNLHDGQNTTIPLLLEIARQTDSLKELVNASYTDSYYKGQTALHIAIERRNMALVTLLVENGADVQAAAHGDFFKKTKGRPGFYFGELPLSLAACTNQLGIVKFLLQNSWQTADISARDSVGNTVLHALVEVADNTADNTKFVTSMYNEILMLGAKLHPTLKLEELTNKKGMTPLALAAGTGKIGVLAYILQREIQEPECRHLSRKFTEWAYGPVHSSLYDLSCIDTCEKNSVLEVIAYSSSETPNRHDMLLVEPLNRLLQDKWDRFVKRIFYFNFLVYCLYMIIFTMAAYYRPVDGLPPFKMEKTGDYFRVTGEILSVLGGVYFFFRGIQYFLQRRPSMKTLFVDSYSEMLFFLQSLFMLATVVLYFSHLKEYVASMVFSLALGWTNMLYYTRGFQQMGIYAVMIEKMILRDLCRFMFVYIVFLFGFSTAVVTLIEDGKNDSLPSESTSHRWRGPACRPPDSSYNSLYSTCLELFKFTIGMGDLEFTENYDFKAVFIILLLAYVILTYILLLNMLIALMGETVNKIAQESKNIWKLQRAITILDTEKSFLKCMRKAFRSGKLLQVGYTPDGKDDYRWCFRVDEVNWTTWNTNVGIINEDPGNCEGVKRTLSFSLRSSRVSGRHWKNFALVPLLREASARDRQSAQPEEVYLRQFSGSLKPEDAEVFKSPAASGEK

TRPM8 = TRPM8 (Homo sapiens, UniProt Q7Z2W7); settings: cited from earlier work
Chain of TRPM8 (Q7Z2W7 whole entry, species assumed): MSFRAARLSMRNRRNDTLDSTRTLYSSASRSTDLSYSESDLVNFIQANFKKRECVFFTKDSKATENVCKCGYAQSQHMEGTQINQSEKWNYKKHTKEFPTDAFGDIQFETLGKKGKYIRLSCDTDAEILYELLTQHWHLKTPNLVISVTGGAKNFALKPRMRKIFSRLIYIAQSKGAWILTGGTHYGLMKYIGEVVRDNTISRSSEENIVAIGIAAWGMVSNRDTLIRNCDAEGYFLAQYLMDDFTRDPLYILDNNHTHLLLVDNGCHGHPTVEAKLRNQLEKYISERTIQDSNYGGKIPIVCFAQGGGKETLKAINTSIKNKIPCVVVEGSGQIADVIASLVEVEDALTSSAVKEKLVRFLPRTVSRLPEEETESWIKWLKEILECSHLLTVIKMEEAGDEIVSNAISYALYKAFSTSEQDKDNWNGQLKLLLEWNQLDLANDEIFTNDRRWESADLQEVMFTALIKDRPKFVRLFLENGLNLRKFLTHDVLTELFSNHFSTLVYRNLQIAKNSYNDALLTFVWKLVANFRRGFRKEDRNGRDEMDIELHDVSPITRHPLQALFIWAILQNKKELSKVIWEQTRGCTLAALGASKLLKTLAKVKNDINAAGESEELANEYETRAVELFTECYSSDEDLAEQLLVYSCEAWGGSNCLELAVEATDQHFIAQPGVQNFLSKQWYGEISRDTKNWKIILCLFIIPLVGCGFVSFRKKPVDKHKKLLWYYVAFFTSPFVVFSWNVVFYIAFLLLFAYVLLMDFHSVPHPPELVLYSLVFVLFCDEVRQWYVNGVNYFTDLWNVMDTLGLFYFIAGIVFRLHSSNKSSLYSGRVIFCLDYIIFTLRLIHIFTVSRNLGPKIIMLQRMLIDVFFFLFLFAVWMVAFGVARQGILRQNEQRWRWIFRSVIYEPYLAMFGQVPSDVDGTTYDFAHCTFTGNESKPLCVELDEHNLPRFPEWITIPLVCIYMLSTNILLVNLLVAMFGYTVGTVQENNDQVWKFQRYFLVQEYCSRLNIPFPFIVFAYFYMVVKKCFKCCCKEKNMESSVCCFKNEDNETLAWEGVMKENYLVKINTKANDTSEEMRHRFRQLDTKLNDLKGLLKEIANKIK

rumen epithelium [5] = test: Ca^45 calcium flux across rumen epithelium in conventional Ussing chambers, menthol vs control group; assay type: cell-based; settings: menthol 200 μM or 1 mM; N=4 cattle, n=85 epithelia; FIG. 10A
Text: as §1, §2, §3
Approach: Three groups were formed. One group remained untreated as control. The other two groups were each treated with menthol at a dose of 200 μM or 1 mM, respectively, and compared to the control (100%).

E. coli = settings: 0.3% menthol in feed dry mass (8 g menthol/day) for 30 days, bulls; cited from earlier work

## Cc1ccc(C(C)C)c(O)c1 [thymol]
[1]
  concentration with significant influence on pH, NH3 concentration and production of volatile fatty acids (VFA): ≥ 500 mg/1
[2]
  effect on the bacteria flora in the ruminal fluid: no effect on the bacteria flora in the ruminal fluid
Rumen epithelium [3]
  Ca flux across the rumen epithelium compared to starting value (100%): no significant long-term reduction of the calcium transport; also recorded: trend to increase the calcium resorption
[4]; 100 μM thymol in 40 mM NH4^+, n=4, before −19.30
  transepithelial current, Median: −19.35 μA · cm^−2
[4]; 100 μM thymol in 40 mM NH4^+, n=4, before −22.47, washout −15.82, p = 0.498
  transepithelial current, MV: −22.19 μA · cm^−2
[4]
  influence on ammonium-induced conductivity / transport across rumen epithelium (profile in words): inhibition, which can still be verified after washing out
Bacteria flora
  influence on methane, ammonium, acetate and propionate production: no influence on the methane, ammonium, acetate and propionate production
TRPV3
  Effect on TRPV3: TRPV3 agonist; also recorded: nonspecific

## Cc1ccc(C(C)C)cc1O [Carvacrol, carvacrol]
TRPA1
  Effect on TRPA1: Agonist
TRPA1; listed as carvacrol
  Effect on TRPA1: potent TRPA1 agonists
TRPV3
  Effect on TRPV3: Agonist

## COc1cc(CNC(=O)CCCC/C=C/C(C)C)ccc1O [capsaicin]
TRPV1
  Effect on TRPV1: Agonist
[4]
  influence on ammonium-induced conductivity / transport across rumen epithelium (profile in words): significantly influenced

## C=C(C)[C@@H]1CCC(C)=C[C@H]1c1c(O)cc(CCCCC)cc1O [Cannabidiol, cannabidiol]
TRPV1
  Effect on TRPV1: Agonist

## CCCCCCCC/C=C\CCCCCCCC(=O)NCc1ccc(O)c(OC)c1 [Olvanil, olvanil]
TRPV1
  Effect on TRPV1: Agonist

## C=CCc1ccc(O)c(OC)c1 [Eugenol, eugenol]
TRPM8
  Effect on TRPM8: Agonist
TRPV1
  Effect on TRPV1: Agonist
TRPA1
  Effect on TRPA1: Agonist
TRPA1; listed as eugenol
  Effect on TRPA1: potent TRPA1 agonists
TRPV3
  Effect on TRPV3: nonspecific

## C=C(C)[C@]12C[C@@H](C)[C@@]34O[C@](Cc5ccccc5)(O[C@@H]1[C@@H]3C=C(COC(=O)Cc1ccc(O)c(OC)c1)C[C@]1(O)C(=O)C(C)=C[C@@H]41)O2 [Resiniferatoxin, resiniferatoxin]
TRPV1
  Effect on TRPV1: Agonist

## CC12CCC(CC1=O)C2(C)C (centres unmarked) [Camphor, camphor]
TRPV1
  Effect on TRPV1: Agonist
TRPA1
  Effect on TRPA1: Antagonist
TRPV3
  Effect on TRPV3: nonspecific

## CC1CCC(C(C)C)C(O)C1 (centres unmarked) [menthol]
TRPM8
  Effect on TRPM8: potent TRPM8 agonist
Rumen epithelium [5]
  calcium transport across the rumen tissue compared to control group (100%): concentration-dependent increase in the calcium transport
[4]; 200 μM menthol in 40 mM NH4^+, n=11, before −30.65
  transepithelial current, Median: −34.21 μA · cm^−2
[4]; 200 μM menthol in 40 mM NH4^+, n=11, before −30.99, washout −26.42
  transepithelial current, MV: −36.34 μA · cm^−2
[4]; 200 μmol·l^−1 to 1 mmol·l^−1 added to solution containing ammonium, apical
  change of transepithelial current or voltage: further considerable rise in the transepithelial current
[4]; 1 mM menthol after 40 mM NH4Cl mucosal, FIG. 1 and 2, 13 measurements, three epithelia
  change of short-circuit current (Isc): further rise in that current; also recorded: statistically significant increase in the current across the epithelium
[4]; 1 mM menthol in 40 mM NH4^+, n=12, before −22.76
  transepithelial current, Median: −26.90 μA · cm^−2
[4]; 1 mM menthol in 40 mM NH4^+, n=12, before −24.20, washout −20.88
  transepithelial current, MV: −28.73 μA · cm^−2
[4]
  influence on ammonium-induced conductivity / transport across rumen epithelium (profile in words): significantly influenced
TRPA1
  Effect on TRPA1: Antagonist
TRPV3
  Effect on TRPV3: nonspecific
E. coli
  influence on the amount of E. coli in the feces: no influence on the amount of E. coli in the feces

## evodiamine
TRPV1
  Effect on TRPV1: Agonist

## C/C=C(/C)C(=O)O[C@H]1C(C)=C2[C@H]([C@@H]1OC(=O)CCCCCCC)[C@@](C)(OC(C)=O)C[C@H](OC(=O)CCC)[C@@]1(O)[C@H]2OC(=O)[C@@]1(C)O [Thapsigargin, thapsigargin]
TRPV1
  Effect on TRPV1: Antagonist
